# In ChEMBL document CHEMBL1130687, “Synthesis and morphological reversion activity on srctsNRK cells of pyrimidinylpropanamide antibiotics, sparsomycin, sparoxomycin A1, A2, and their analogues” (1998):
# Test system: NRK
# Experiment: Compound was tested for its morphological reversion activity on srctsNRK cells
# Type: functional
# Conditions: Rattus norvegicus, read-out: MEC
row,SMILES,minimal effective concentration [µM]
1,CCC(C)SC[S+]([O-])C[C@H](CO)NC(=O)/C=C/c1c(C)nc(O)nc1O (some centres not stated),180
2,CCSC[S+]([O-])C[C@H](CO)NC(=O)/C=C/c1c(C)nc(O)nc1O (some centres not stated),20
3,CCCCSC[S+]([O-])C[C@H](CO)NC(=O)/C=C/c1c(C)nc(O)nc1O (some centres not stated),60
4,CSC[S+]([O-])C[C@H](CO)NC(=O)/C=C/c1c(C)[nH]c(=O)[nH]c1=O (some centres not stated),6.5
5,Cc1nc(O)nc(O)c1/C=C/C(=O)N[C@H](CO)C[S+]([O-])C[S+](C)[O-] (some centres not stated),530
6,Cc1nc(O)nc(O)c1/C=C/C(=O)N[C@@H](CO)C[S+]([O-])C[S+](C)[O-] (some centres not stated),530
7,COCOC[C@@H](C[S+]([O-])CSC)NC(=O)/C=C/c1c(C)nc(O)nc1O (some centres not stated),60
